From patent publication US20260297080A1, “BICYCLIC COMPOUNDS AS CDK INHIBITORS” (BeOne Medicines I GmbH, priority 2022, published 2026)

How the values were obtained:
CDK2/Cyclin E1 = CDK2/Cyclin E1 (Homo sapiens, UniProt P24941); experiment: CDK2/Cyclin E1 Biochemical Assay (TR-FRET), 0.060 mM ATP; conditions: 0.15 μM Rb (Ser780)-biotin substrate, pH7.0, 60 min preincubation, 120 min reaction, room temperature
Procedure, shortened: (§1)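 Percent inhibition was derived from the 665 nm/620 nm TR-FRET ratio after a 120-minute room-temperature reaction on 0.15 μM Rb (Ser780)-biotin, preceded by 60-minute enzyme–compound preincubation. IC50 came from four-parameter logistic fitting.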

CDK1/Cyclin B1 = CDK1/Cyclin B1 (Homo sapiens, UniProt P06493); experiment: CDK1/Cyclin B1 Biochemical Assay (TR-FRET), 0.015 mM ATP; conditions: 0.15 μM Rb (Ser780)-biotin substrate, pH7.0, 60 min preincubation, 120 min reaction, room temperature
Procedure, shortened: as §1

Sequence of CDK1/Cyclin B1 (P06493 whole entry): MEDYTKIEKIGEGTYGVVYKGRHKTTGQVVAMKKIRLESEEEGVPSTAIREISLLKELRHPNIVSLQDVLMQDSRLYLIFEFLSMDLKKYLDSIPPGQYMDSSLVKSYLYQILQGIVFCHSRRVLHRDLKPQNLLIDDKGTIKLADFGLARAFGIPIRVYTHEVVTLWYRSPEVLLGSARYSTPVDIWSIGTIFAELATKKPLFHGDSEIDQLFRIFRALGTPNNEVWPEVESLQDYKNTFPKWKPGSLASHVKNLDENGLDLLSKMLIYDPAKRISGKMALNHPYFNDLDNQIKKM
Sequence of CDK1/Cyclin B1 (P14635 whole entry partner): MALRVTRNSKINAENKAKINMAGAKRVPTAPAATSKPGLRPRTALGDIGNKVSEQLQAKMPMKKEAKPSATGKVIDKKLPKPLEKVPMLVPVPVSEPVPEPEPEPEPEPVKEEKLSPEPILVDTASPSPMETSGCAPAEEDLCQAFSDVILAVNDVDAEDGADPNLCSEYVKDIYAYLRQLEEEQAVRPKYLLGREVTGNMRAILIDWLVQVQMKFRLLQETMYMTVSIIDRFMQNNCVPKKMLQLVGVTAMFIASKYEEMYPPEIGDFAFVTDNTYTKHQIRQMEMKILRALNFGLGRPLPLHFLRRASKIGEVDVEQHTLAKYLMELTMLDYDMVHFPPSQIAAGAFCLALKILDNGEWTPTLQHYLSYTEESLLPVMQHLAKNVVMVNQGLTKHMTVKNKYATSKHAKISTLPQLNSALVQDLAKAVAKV

| Structure (SMILES) | IC50 (CDK2/Cyclin E1) [µM] | IC50 (CDK1/Cyclin B1) [µM] |
| --- | --- | --- |
| O=C(NC1CCC(O)CC1)O[C@H]1CC[C@@H](c2cc(Nc3ccc4c(c3F)CNS4(=O)=O)n[nH]2)C1 (single isomer, unassigned) [Example 142, cis-3-(3-((4-fluoro-1,1-dioxido-2,3-dihydrobenzo[d]isothiazol-5-yl)amino)-1H-pyrazol-5-yl)cyclopentyl(4-hydroxycyclohexyl)carbamate] | 0.0012 | 0.046 |
| CC(C)NC(=O)O[C@H]1CC[C@@H](c2cc(Nc3ccc4c(c3)C(F)(F)S(=O)(=O)N4)n[nH]2)C1 (relative stereo) [Example 334, cis-3-(3-((3,3-difluoro-2,2-dioxido-1,3-dihydrobenzo[c]isothiazol-5-yl)amino)-1H-pyrazol-5-yl)cyclopentyl isopropylcarbamate] | 0.084 | 0.899 |
| CCCNC(=O)O[C@H]1CC[C@@H](c2cc(Nc3ccc4c(c3F)S(=O)(=O)NC4)n[nH]2)C1 (single isomer, unassigned) [Example 189a, cis-3-(3-((7-fluoro-1,1-dioxido-2,3-dihydrobenzo[d]isothiazol-6-yl)amino)-1H-pyrazol-5-yl)cyclopentyl propylcarbamate] | 0.01 | 0.35 |
| CC1(NC(=O)O[C@H]2CC[C@@H](c3cc(Nc4ccc5c(c4F)CS(=O)(=O)N5)n[nH]3)C2)CCOCC1 (relative stereo) [Example 402, cis-3-(3-((4-fluoro-2,2-dioxido-1,3-dihydrobenzo[c]isothiazol-5-yl)amino)-1H-pyrazol-5-yl)cyclopentyl(4-methyltetrahydro-2H-pyran-4-yl)carbamate] | 0.0051 | 0.101 |
| CC1(NC(=O)O[C@H]2CC[C@@H](c3cc(Nc4ccc5c(c4F)C(C)(C)NS5(=O)=O)n[nH]3)C2)CC1 (relative stereo) [Example 56, cis-3-(3-((4-fluoro-3,3-dimethyl-1,1-dioxido-2,3-dihydrobenzo[d]isothiazol-5-yl)amino)-1H-pyrazol-5-yl)cyclopentyl(1-methylcyclopropyl)carbamate] | 0.025 | 0.472 |
| CC(=O)N1CCC(N2Cc3c(ccc(Nc4cc([C@@H]5CC[C@H](OC(=O)NC(C)C)C5)[nH]n4)c3F)S2(=O)=O)C1 (relative stereo) [Example 80, cis-3-(3-((2-(1-acetylpyrrolidin-3-yl)-4-fluoro-1,1-dioxido-2,3-dihydrobenzo[d]isothiazol-5-yl)amino)-1H-pyrazol-5-yl)cyclopentyl isopropylcarbamate] | 0.01 | 0.767 |
| COCC1(NC(=O)O[C@H]2CC[C@@H](c3cc(Nc4ccc5c(c4)CS(=O)(=O)N5C)n[nH]3)C2)CC1 (relative stereo) [Example 228, cis-3-(3-((1-methyl-2,2-dioxido-1,3-dihydrobenzo[c]isothiazol-5-yl)amino)-1H-pyrazol-5-yl)cyclopentyl(1-(methoxymethyl)cyclopropyl)carbamate] | 0.0094 | 0.123 |
| CC(C)NC(=O)O[C@H]1C[C@@H](c2cc(Nc3cc4c(cc3F)S(=O)(=O)NC4)n[nH]2)C1 [Example 397, (1s,3s)-3-(3-((6-fluoro-1,1-dioxido-2,3-dihydrobenzo[d]isothiazol-5-yl)amino)-1H-pyrazol-5-yl)cyclobutyl isopropylcarbamate] | 0.103 | 2.02 |
| CC1(NC(=O)O[C@H]2CC[C@@H](c3cc(Nc4ccc5c(c4F)CS(=O)(=O)N5CCO)n[nH]3)C2)COC1 (relative stereo) [Example 390, cis-3-(3-((4-fluoro-1-(2-hydroxyethyl)-2,2-dioxido-1,3-dihydrobenzo[c]isothiazol-5-yl)amino)-1H-pyrazol-5-yl)cyclopentyl(3-methyloxetan-3-yl)carbamate] | 0.0025 | 0.236 |
| CC(C)NC(=O)O[C@H]1CC[C@@H](c2cc(Nc3ccc4c(c3)C(C)S(=O)(=O)N4)n[nH]2)C1 (single isomer, unassigned) [Example 384a, cis-3-(3-((3-methyl-2,2-dioxido-1,3-dihydrobenzo[c]isothiazol-5-yl)amino)-1H-pyrazol-5-yl)cyclopentyl isopropylcarbamate] | 0.0008 | 0.022 |
| CC(C)NC(=O)O[C@H]1CC[C@@H](c2cc(Nc3cc(F)c4c(c3)CS(=O)(=O)N4CC(F)(F)F)n[nH]2)C1 (relative stereo) [Example 281, cis-3-(3-((7-fluoro-2,2-dioxido-1-(2,2,2-trifluoroethyl)-1,3-dihydrobenzo[c]isothiazol-5-yl)amino)-1H-pyrazol-5-yl)cyclopentyl isopropylcarbamate] | 0.0081 | 0.131 |
| CC(C)NC(=O)O[C@H]1CC[C@@H](c2cc(Nc3cc4c(cc3F)S(=O)(=O)NC4(C)C)n[nH]2)C1 (relative stereo) [Example 14, cis-3-(3-((6-fluoro-3,3-dimethyl-1,1-dioxido-2,3-dihydrobenzo[d]isothiazol-5-yl)amino)-1H-pyrazol-5-yl)cyclopentyl isopropylcarbamate] | 0.03 | 1.09 |
| CC(C)NC(=O)O[C@H]1CC[C@@H](c2cc(Nc3ccc4c(c3F)S(=O)(=O)N(C(C)C)C4)n[nH]2)C1 (relative stereo) [Example 193, cis-3-(3-((7-fluoro-2-isopropyl-1,1-dioxido-2,3-dihydrobenzo[d]isothiazol-6-yl)amino)-1H-pyrazol-5-yl)cyclopentyl isopropylcarbamate] | 0.016 | 0.362 |
| CC1NS(=O)(=O)c2ccc(Nc3cc([C@@H]4CC[C@H](OC(=O)NC5(C)CC5)C4)[nH]n3)cc21 (single isomer, unassigned) [Example 322a, cis-3-(3-((3-methyl-1,1-dioxido-2,3-dihydrobenzo[d]isothiazol-5-yl)amino)-1H-pyrazol-5-yl)cyclopentyl(1-methylcyclopropyl)carbamate] | 0.0011 | 0.017 |
| CC[C@H](C)NC(=O)O[C@H]1CC[C@@H](c2cc(Nc3ccc4c(c3)CCS(=O)(=O)N4)n[nH]2)C1 (relative stereo) [Example 248, cis-3-(3-((2,2-dioxido-3,4-dihydro-1H-benzo[c][1,2]thiazin-6-yl)amino)-1H-pyrazol-5-yl)cyclopentyl((S)-sec-butyl)carbamate] | 0.0026 | 0.049 |
| CC1NS(=O)(=O)c2ccc(Nc3cc([C@@H]4CC[C@H](OC(=O)NC5(C)CC5)C4)[nH]n3)c(F)c21 (single isomer, unassigned) [Example 52a, cis-3-(3-((4-fluoro-3-methyl-1,1-dioxido-2,3-dihydrobenzo[d]isothiazol-5-yl)amino)-1H-pyrazol-5-yl)cyclopentyl(1-methylcyclopropyl)carbamate] | 0.0035 | 0.274 |
| [2H]C([2H])([2H])C1c2cc(Nc3cc([C@@H]4CC[C@H](OC(=O)NCCC)C4)[nH]n3)cc(F)c2N(C([2H])([2H])[2H])S1(=O)=O (relative stereo) [Example 284, cis-3-(3-((7-fluoro-1,3-bis(methyl-d3)-2,2-dioxido-1,3-dihydrobenzo[c]isothiazol-5-yl)amino)-1H-pyrazol-5-yl)cyclopentyl propylcarbamate] | 0.0083 | 0.061 |
